# Literature values, collected in patent publication US10059717B2, “Urea compounds containing 3,4-dihydropyrimido[4,5-D]pyrimidin-2(1H)-one skeleton as protein kinase inhibitors” (KOREA INSTITUTE OF SCIENCE AND TECHNOLOGY, priority 2016, dated 2018).
# Assays:
# [1] = test system: cell samples from AML patients with actual NRAS mutants; details: cited from earlier work
# [2] = test system: preclinical leukemia models; details: cited from earlier work
compound,measurement,setting,value
Cc1ccc(Nc2ncc3c(n2)N(C)C(=O)N(c2cc(NC(=O)c4cccc(C(F)(F)F)c4)ccc2C)C3)cn1 [GNF 7],efficacy in cell samples from AML patients,[1],exhibited its efficacy
same,inhibitory effects in preclinical leukemia models,[2],inhibitory effects in preclinical leukemia models have been observed
